# Source: patent US4160829A, “Antibacterial 1,2,4-oxadiazolylacetamido cephalosporins” (Gist-Brocades N.V., priority 1972, dated 1979)
# What was measured:
# Prot.mirab. L 93 [1] = assay: micro serial dilution test; assay type: cell-based; conditions: Proteus mirabilis, 18 h, read-out: minimal inhibitory concentration (MIC)
# Haem.infl. A 1030 = assay: micro serial dilution test; assay type: cell-based; conditions: 18 h, read-out: minimal inhibitory concentration (MIC)
# Shig.equir. T 3 = assay: micro serial dilution test; assay type: cell-based; conditions: micro serial dilution (in brackets), about 18 hours, 30° C. or 37° C.; read-out: minimal inhibitory concentration (MIC)
# Excerpt: Two drops of a stock solution of the test compound (antibiotic) in a known concentration were brought into the first hole of a test plate with 9 numbered holes with a sterile Pasteur pipette. After rinsing this pipette three times with a physiological NaCl-solution, two drops of a stock solution of the test organism in a culture medium were brought in all the holes except for hole 8. In the first hole, the solution of the tested compound had been half diluted, then by stirring the liquid in the first hole and adding two drops of this mixture to the second hole and so on until hole 8, dilutions of the test compound solution were obtained in geometrical progression. The hole 9 contained no antibiotic and served for checking the growth of the testogranism in a blank medium. The test plate was incubated at 30° C. or 37° C. for about 18 hours.
# Prot.mirab. H 3 [2] = assay: micro serial dilution test; assay type: cell-based; conditions: Proteus mirabilis, 18 h, read-out: minimal inhibitory concentration (MIC)
# Esch.coli U 20 [3] = assay: micro serial dilution test; assay type: cell-based; conditions: Escherichia coli, U20, 18 h, read-out: minimal inhibitory concentration (MIC)
# Staph.aureus A 355 [4] = assay: micro serial dilution test; assay type: cell-based, Staphylococcus aureus; conditions: Staphylococcus aureus, read-out: minimal inhibitory concentration (MIC)
# Bac.Subt.ATCC 6633 [5] = assay: micro serial dilution test; assay type: cell-based; conditions: Bacillus subtilis, ATCC6633, 18 h, read-out: minimal inhibitory concentration (MIC)
# Salm.dubl. P 43 [6] = assay: micro serial dilution test; assay type: cell-based, Salmonella dublin; conditions: Salmonella enterica, 18 h, read-out: minimal inhibitory concentration (MIC)
# Kleb.pneum. A 809 [7] = assay: micro serial dilution test; assay type: cell-based; conditions: Klebsiella pneumoniae, 18 h, read-out: minimal inhibitory concentration (MIC)
# Pseud.aerug. H 10 [8] = assay: micro serial dilution test; assay type: cell-based; conditions: 18 h, read-out: minimal inhibitory concentration (MIC)
# [9] = test system: Pseud.aerug. Wyeth A 1058; assay: micro serial dilution test; assay type: cell-based; conditions: 18 h, read-out: minimal inhibitory concentration (MIC)
# Staph.aureus A 321 [10] = assay: micro serial dilution test; assay type: cell-based; conditions: Staphylococcus aureus, A321, 18 h, read-out: minimal inhibitory concentration (MIC)
# Dipl.pneum. L 54 [11] = assay: micro serial dilution test; assay type: cell-based, Diplococcus pneumoniae; conditions: Streptococcus pneumoniae, 18 h, read-out: minimal inhibitory concentration (MIC)
# Prot.morg. 2241 [12] = assay: micro serial dilution test; assay type: cell-based; conditions: 18 h, read-out: minimal inhibitory concentration (MIC)
# Past.multo. A 723 [13] = assay: micro serial dilution test; assay type: cell-based; conditions: Pasteurella multocida, 18 h, read-out: minimal inhibitory concentration (MIC)
# Strep.haem. A 266 = assay: micro serial dilution test; assay type: cell-based, Streptococcus haemolyticus; conditions: Streptococcus, 18 h, read-out: minimal inhibitory concentration (MIC)
# Prot.rettg. A 821 [14] = assay: micro serial dilution test; assay type: cell-based, Proteus rettgeri; conditions: Providencia rettgeri, 18 h, read-out: minimal inhibitory concentration (MIC)
# Bruc.melit. A 488 = assay: microbe, parasite or virus in culture; assay type: cell-based; conditions: Brucella melitensis, 18 h, read-out: minimal inhibitory concentration (MIC)
# Pseud.aerug. 2396 [15] = assay: micro serial dilution test; assay type: cell-based; conditions: 18 h, read-out: minimal inhibitory concentration (MIC)
# Strep. faec. L 80 [16] = assay: micro serial dilution test; assay type: cell-based, Streptococcus faecalis; conditions: Enterococcus faecalis, 18 h, read-out: minimal inhibitory concentration (MIC)
# Salm.dubl. P 43 [17] = assay: agar serial dilution test; assay type: cell-based, Salmonella dublin; conditions: Salmonella enterica; agar serial dilution, 24 hours, 37° C.; read-out: minimal inhibitory concentration (MIC)
# [18] = test system: Pseud.aerug. Wyeth A 1058; assay: agar serial dilution test; assay type: cell-based; conditions: agar serial dilution, 24 hours, 37° C.; read-out: minimal inhibitory concentration (MIC)
# Staph.aureus A 321 [19] = assay: agar serial dilution test; assay type: cell-based, Staphylococcus aureus; conditions: Staphylococcus aureus, A321, 24 h, agar serial dilution, 24 hours, 37° C.; read-out: minimal inhibitory concentration (MIC)
# Staph.aureus A 2001 [20] = assay: micro serial dilution test; assay type: cell-based, Staphylococcus aureus; conditions: Staphylococcus aureus, A2001, 18 h, micro serial dilution (in brackets), about 18 hours, 30° C. or 37° C.; read-out: minimal inhibitory concentration (MIC)
# Pseud.aerug. 2396 [21] = assay: agar serial dilution test; assay type: cell-based; conditions: agar serial dilution, 24 hours, 37° C.; read-out: minimal inhibitory concentration (MIC)
# Actinob.equ. T 3 = assay: agar serial dilution test; assay type: cell-based; conditions: 24 hours, 37° C., read-out: minimal inhibitory concentration (MIC)
# Prot.mirab. L 93 [22] = assay: agar serial dilution test; assay type: cell-based, Proteus mirabilis; conditions: Proteus mirabilis; agar serial dilution, 24 hours, 37° C.; read-out: minimal inhibitory concentration (MIC)
# Esch.coli U 20 [23] = assay: agar serial dilution test; assay type: cell-based, Escherichia coli; conditions: Escherichia coli, U20; agar serial dilution, 24 hours, 37° C.; read-out: minimal inhibitory concentration (MIC)
# Strep. faec. L 80 [24] = assay: agar serial dilution test; assay type: cell-based, Streptococcus faecalis; conditions: Enterococcus faecalis; agar serial dilution, 24 hours, 37° C.; read-out: minimal inhibitory concentration (MIC)
# Prot.morg. 2241 [25] = assay: agar serial dilution test; assay type: cell-based; conditions: 24 h, agar serial dilution, 24 hours, 37° C.; read-out: minimal inhibitory concentration (MIC)
# Bruc. Suis A 2126 = assay: agar serial dilution test; assay type: cell-based; conditions: Brucella suis, 24 h, read-out: minimal inhibitory concentration (MIC)
# Staph.aureus A 355 [26] = assay: agar serial dilution test; conditions: Staphylococcus aureus, A355, 24 h, read-out: minimal inhibitory concentration (MIC), agar serial dilution, 24 hours, 37° C.; penicillinase-producing strain
# Prot.mirab. A 1200 [27] = assay: micro serial dilution test; assay type: cell-based; conditions: Proteus mirabilis; micro serial dilution (in brackets), about 18 hours, 30° C. or 37° C.; read-out: minimal inhibitory concentration (MIC)
# Strep.haem A 1088 = assay: agar serial dilution test; assay type: cell-based, Streptococcus haemolyticus; conditions: Streptococcus, A1088, 24 hours, 37° C., read-out: minimal inhibitory concentration (MIC)
# Staph.aureus A 2001 [28] = assay: agar serial dilution test; assay type: cell-based, Staphylococcus aureus; conditions: Staphylococcus aureus, A2001, 24 h, agar serial dilution, 24 hours, 37° C.; read-out: minimal inhibitory concentration (MIC)
# Staph.aureus A 2000 [29] = assay: agar serial dilution test; assay type: cell-based, Staphylococcus aureus; conditions: Staphylococcus aureus, A2000, 24 h, agar serial dilution, 24 hours, 37° C.; read-out: minimal inhibitory concentration (MIC)
# Prot.mirab. A 1200 [30] = assay: agar serial dilution test; assay type: cell-based, Proteus mirabilis; conditions: Proteus mirabilis, 24 h, agar serial dilution, 24 hours, 37° C.; read-out: minimal inhibitory concentration (MIC)
# Salm.typh. R 172 = assay: agar serial dilution test; assay type: cell-based; conditions: 24 h, read-out: minimal inhibitory concentration (MIC)
# Bac.Subt.ATCC 6633 [31] = assay: agar serial dilution test; assay type: cell-based, Bacillus subtilis; conditions: Bacillus subtilis, ATCC6633, 24 h, agar serial dilution, 24 hours, 37° C.; read-out: minimal inhibitory concentration (MIC)
# Staph.aureus A 2000 [32] = assay: micro serial dilution test; assay type: cell-based, Staphylococcus aureus; conditions: Staphylococcus aureus, A2000, 18 h, micro serial dilution (in brackets), about 18 hours, 30° C. or 37° C.; read-out: minimal inhibitory concentration (MIC)
# Dipl.pneum. L 54 [33] = assay: agar serial dilution test; assay type: cell-based, Diplococcus pneumoniae; conditions: Streptococcus pneumoniae; agar serial dilution, 24 hours, 37° C.; read-out: minimal inhibitory concentration (MIC)
# Past.multo. A 723 [34] = assay: agar serial dilution test; assay type: cell-based, Pasteurella multocida; conditions: Pasteurella multocida; agar serial dilution, 24 hours, 37° C.; read-out: minimal inhibitory concentration (MIC)
# Kleb.pneum. A 809 [35] = assay: agar serial dilution test; assay type: cell-based, Klebsiella pneumoniae; conditions: Klebsiella pneumoniae; agar serial dilution, 24 hours, 37° C.; read-out: minimal inhibitory concentration (MIC)
# Pseud.aerug. H 10 [36] = assay: agar serial dilution test; assay type: cell-based; conditions: agar serial dilution, 24 hours, 37° C.; read-out: minimal inhibitory concentration (MIC)
# Prot.mirab. H 3 [37] = assay: agar serial dilution test; assay type: cell-based, Proteus mirabilis; conditions: Proteus mirabilis; agar serial dilution, 24 hours, 37° C.; read-out: minimal inhibitory concentration (MIC)
# Sarc. lutea ATCC 9341 = assay: agar serial dilution test; assay type: cell-based; conditions: Micrococcus luteus, ATCC9341, 24 hours, 37° C., read-out: minimal inhibitory concentration (MIC)
# Prot.rettg. A 821 [38] = assay: agar serial dilution test; assay type: cell-based, Proteus rettgeri; conditions: Providencia rettgeri, 24 h, agar serial dilution, 24 hours, 37° C.; read-out: minimal inhibitory concentration (MIC)
structure (smiles),measurement,setting,value
CC1(C)S[C@@H]2[C@H](NC(=O)COc3ccccc3)C(=O)N2[C@H]1C(=O)O [Penicillin V],MIC,Prot.mirab. L 93 [1],10 µg/mL
same,MIC,Haem.infl. A 1030,1 µg/mL
same,MIC,Shig.equir. T 3,5 µg/mL
same,MIC,Prot.mirab. H 3 [2],100 µg/mL
same,MIC,Esch.coli U 20 [3],100 µg/mL
same,MIC,"Staph.aureus A 355 [4]; A355, 18 h",25 µg/mL
same,MIC,Bac.Subt.ATCC 6633 [5],2 ng/mL
same,MIC,Salm.dubl. P 43 [6],> 100 µg/mL
same,MIC,Kleb.pneum. A 809 [7],100 µg/mL
same,MIC,Pseud.aerug. H 10 [8],> 100 µg/mL
same,MIC,[9],> 100 µg/mL
same,MIC,Staph.aureus A 321 [10],0.045 µg/mL
same,MIC,Dipl.pneum. L 54 [11],1 µg/mL
same,MIC,Prot.morg. 2241 [12],> 100 µg/mL
same,MIC,Past.multo. A 723 [13],0.75 µg/mL
same,MIC,Strep.haem. A 266,0.2 µg/mL
same,MIC,Prot.rettg. A 821 [14],100 µg/mL
same,MIC,Bruc.melit. A 488,1 µg/mL
same,MIC,Pseud.aerug. 2396 [15],100 µg/mL
same,MIC,Strep. faec. L 80 [16],5 µg/mL
"Cc1nc(CC(=O)N[C@@H]2C(=O)N3C(C(=O)O)=C(CSc4nnnn4C)CS[C@H]23)no1 [41 B, 7-[5-methyl-1,2,4-oxadiazol-3-yl-acetamido]-3-[1-methyl-tetrazol-5-yl-mercaptomethyl]-3-cephem-4-carboxylic acid]",MIC,Salm.dubl. P 43 [17],1.5 µg/mL
same,MIC,[18],100 µg/mL
same,MIC,Staph.aureus A 321 [19],0.25 µg/mL
same,MIC,Staph.aureus A 2001 [20],0.6 µg/mL
same,MIC,Pseud.aerug. 2396 [21],100 µg/mL
same,MIC,Actinob.equ. T 3,0.5 µg/mL
same,MIC,Prot.mirab. L 93 [22],12.5 µg/mL
same,MIC,Esch.coli U 20 [23],1.5 µg/mL
same,MIC,Strep. faec. L 80 [24],> 100 µg/mL
same,MIC,Prot.morg. 2241 [25],100 µg/mL
same,MIC,"Staph.aureus A 355 [4]; A355, micro serial dilution (in brackets), about 18 hours, 30° C. or 37° C., penicillinase-producing strain",0.9 µg/mL
same,MIC,Bruc. Suis A 2126,1 µg/mL
same,MIC,Staph.aureus A 355 [26],1 µg/mL
same,MIC,Prot.mirab. A 1200 [27],5 µg/mL
same,MIC,Strep.haem A 1088,0.5 µg/mL
same,MIC,Staph.aureus A 2001 [28],0.5 µg/mL
same,MIC,Staph.aureus A 2000 [29],1 µg/mL
same,MIC,Prot.mirab. A 1200 [30],25 µg/mL
same,MIC,Salm.typh. R 172,1.5 µg/mL
same,MIC,Bac.Subt.ATCC 6633 [31],0.5 µg/mL
same,MIC,Staph.aureus A 2000 [32],0.6 µg/mL
same,MIC,Dipl.pneum. L 54 [33],1.5 µg/mL
same,MIC,Past.multo. A 723 [34],1.5 µg/mL
same,MIC,Kleb.pneum. A 809 [35],1 µg/mL
same,MIC,Pseud.aerug. H 10 [36],100 µg/mL
same,MIC,Prot.mirab. H 3 [37],12.5 µg/mL
same,MIC,Sarc. lutea ATCC 9341,0.5 µg/mL
same,MIC,Prot.rettg. A 821 [38],0.5 µg/mL
